Experimental data reported in patent US20090035298A1 (priority 2007, published 2009).
Values joined by “and” are separate entries in the source; they are usually repeats but may differ in a detail not shown here. Equal entries are not always repeated. Where two headings read alike, the source gives them in different places. Where no end group is shown, it is not given here.

How the values were obtained:
[1] = test system: hippocampal ISF Aβ levels; format: in vivo, Tg2576 mice; settings: for Effect on ISF Aβ levels versus vehicle treated mice: 50 mg/kg intraperitoneal, n=8 per group; for Effect on ISF Aβ levels versus vehicle treated mice / ISF Aβ levels, % of baseline by 12 hours: 3-4 month old Tg2576 mice; for ISF Aβ levels, % of baseline by 12 hours: n=5
[2] = test system: neuronal activity in the hippocampus; design: species or system Tg2576 mice; settings: mouse, in vivo

For `NC1=N[C@H](O)[C@H]2[C@H]3O[C@]4(O)O[C@@H]([C@@H](O)[C@@]2(N1)[C@@H]4O)[C@]3(O)CO` [TTX, Tetrodotoxin], the “Change in ISF Aβ levels on 3 hours restraint stress given 8 hours after TTX treatment, compared to TTX-alone controls” value ([1]; mouse, in vivo) was “no significant change”, the “Decrease of ISF Aβ levels over 16 hours compared to baseline” value ([1]; mouse, in vivo) was about 60% and the “ISF Aβ levels for an additional 12 hours in the presence of TTX” value ([1]; mouse, in vivo) was “remained low”. For the same compound, the “ISF Aβ levels, % of baseline by 17 hours from drug treatment” value ([1]; mouse, in vivo) was 58.5% and the “Effect on neuronal activity in the hippocampus” value [2] was “almost completely blocked”.
For `C[C@]12C[C@H](O)[C@H]3[C@@H](CCC4=CC(=O)CC[C@@]43C)[C@@H]1CC[C@@H]2C(=O)CO` [CORT, Corticosterone], the “Effect on ISF Aβ levels versus vehicle treated mice” value [1] was “no difference” and the “Effect on ISF Aβ levels versus vehicle treated mice” value ([1]; listed as Corticosterone) was “did not alter”.
“CRF (SEEPPISLDLTFHLLREVLEMARAEQLAQQAHSNRKLMEII; ends and bridges not checked; UniProt P06850 154-194, looked up)” was tested, and the “ISF Aβ levels, % of baseline by 12 hours” value ([1]; 100 nM by reverse microdialysis in hippocampus) was 138.3±7.027% and 138.3%, the “Time of increase of ISF Aβ levels after drug infusion” value ([1]; 100 nM in the microdialysis fluid) was 3 h and the “ISF Aβ levels, % of baseline by 12 hours” value ([1]; 200 nM by reverse microdialysis in hippocampus) was 171.9±17.83% and 171.9%. For the same compound, the “Time of increase of ISF Aβ levels after drug infusion” value ([1]; 200 nM in the microdialysis fluid) was “immediately” and the “Dose dependence of increase in ISF Aβ levels” value ([1]; 100 and 200 nM by reverse microdialysis) was “dose-dependent manner”.
